Measured values reported in PubChem BioAssay (NCI).
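At the GI50, growth is halved. The concentration for full growth arrest is given as TGI.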

Columns and labels:
Experiment in all cases: DTP human tumour cell line panel, 384-well format
MALME-3M melanoma = tested on: MALME-3M melanoma
SNB-75 CNS = tested on: SNB-75 CNS
SF-295 CNS = tested on: SF-295 CNS
KM12 colon = tested on: KM12 colon
T-47D breast = tested on: T-47D breast
HCT-15 colon = tested on: HCT-15 colon
HOP-62 NSCLC = tested on: HOP-62 NSCLC
SN12C renal = tested on: SN12C renal
OVCAR-3 ovarian = tested on: OVCAR-3 ovarian
HCC-2998 colon = tested on: HCC-2998 colon
CAKI-1 renal = tested on: CAKI-1 renal
SR leukemia = tested on: SR leukemia
MDA-MB-468 breast = tested on: MDA-MB-468 breast
CCRF-CEM leukemia = tested on: CCRF-CEM leukemia
TK-10 renal = tested on: TK-10 renal
MOLT-4 leukemia = tested on: MOLT-4 leukemia
HOP-92 NSCLC = tested on: HOP-92 NSCLC
UACC-257 melanoma = tested on: UACC-257 melanoma
A498 renal = tested on: A498 renal
M14 melanoma = tested on: M14 melanoma
ACHN renal = tested on: ACHN renal
BT-549 breast = tested on: BT-549 breast
HS 578T breast = tested on: HS 578T breast
SK-MEL-2 melanoma = tested on: SK-MEL-2 melanoma
DU-145 prostate = tested on: DU-145 prostate
COLO 205 colon = tested on: COLO 205 colon
RPMI-8226 leukemia = tested on: RPMI-8226 leukemia
SF-539 CNS = tested on: SF-539 CNS
SK-MEL-5 melanoma = tested on: SK-MEL-5 melanoma
UACC-62 melanoma = tested on: UACC-62 melanoma
786-0 renal = tested on: 786-0 renal
HCT-116 colon = tested on: HCT-116 colon
K-562 leukemia = tested on: K-562 leukemia
NCI/ADR-RES ovarian = tested on: NCI/ADR-RES ovarian
NCI-H460 NSCLC = tested on: NCI-H460 NSCLC
A549 NSCLC = tested on: A549 NSCLC
MDA-MB-231 breast = tested on: MDA-MB-231 breast
NCI-H522 lung = tested on: NCI-H522 lung
MDA-MB-435 melanoma = tested on: MDA-MB-435 melanoma
MCF7 breast = tested on: MCF7 breast
NCI-H226 lung = tested on: NCI-H226 lung
SK-OV-3 ovarian = tested on: SK-OV-3 ovarian
U251 glioblastoma = tested on: U251 glioblastoma
SF-268 CNS = tested on: SF-268 CNS
HL-60(TB) leukemia = tested on: HL-60(TB) leukemia
IGROV1 ovarian = tested on: IGROV1 ovarian
SK-MEL-28 melanoma = tested on: SK-MEL-28 melanoma
OVCAR-5 ovarian = tested on: OVCAR-5 ovarian
RXF 393 renal = tested on: RXF 393 renal
PC-3 prostate = tested on: PC-3 prostate
LOX IMVI melanoma = tested on: LOX IMVI melanoma
EKVX NSCLC = tested on: EKVX NSCLC
SW-620 colon = tested on: SW-620 colon
OVCAR-4 ovarian = tested on: OVCAR-4 ovarian
UO-31 renal = tested on: UO-31 renal
NCI-H322M lung = tested on: NCI-H322M lung
HT29 colon = tested on: HT29 colon
NCI-H23 lung = tested on: NCI-H23 lung

SMILES: O=C(O)c1ccc2c(c1)nc(Nc1cccc(Cl)c1)c1ccncc12
- GI50 (MALME-3M melanoma): 1040 nM
- TGI (MALME-3M melanoma): 2560 nM
- GI50 (SNB-75 CNS): 1410 nM
- TGI (SNB-75 CNS): 3.85 µM
- GI50 (SF-295 CNS): 1810 nM
- TGI (SF-295 CNS): 4.59 µM
- GI50 (KM12 colon): 1890 nM
- TGI (KM12 colon): 4.38 µM
- GI50 (T-47D breast): 1400 nM
- TGI (T-47D breast): 3.55 µM
- GI50 (HCT-15 colon): 1740 nM
- TGI (HCT-15 colon): 3.66 µM
- GI50 (HOP-62 NSCLC): 1730 nM
- TGI (HOP-62 NSCLC): 3.86 µM
- GI50 (SN12C renal): 1500 nM
- TGI (SN12C renal): 3.69 µM
- GI50 (OVCAR-3 ovarian): 399 nM
- TGI (OVCAR-3 ovarian): 1950 nM
- GI50 (HCC-2998 colon): 1380 nM
- TGI (HCC-2998 colon): 3.89 µM
- GI50 (CAKI-1 renal): 1530 nM
- TGI (CAKI-1 renal): 3.73 µM
- GI50 (SR leukemia): 1450 nM
- TGI (SR leukemia): 2770 nM
- GI50 (MDA-MB-468 breast): 656 nM
- TGI (MDA-MB-468 breast): 2050 nM
- GI50 (CCRF-CEM leukemia): 1180 nM
- TGI (CCRF-CEM leukemia): 2420 nM
- GI50 (TK-10 renal): 2140 nM
- TGI (TK-10 renal): 5.81 µM
- GI50 (MOLT-4 leukemia): 1400 nM
- TGI (MOLT-4 leukemia): 2730 nM
- GI50 (HOP-92 NSCLC): 1420 nM
- TGI (HOP-92 NSCLC): 4.65 µM
- GI50 (UACC-257 melanoma): 1570 nM
- TGI (UACC-257 melanoma): 3.46 µM
- GI50 (A498 renal): 1420 nM
- TGI (A498 renal): 3.31 µM
- GI50 (M14 melanoma): 1270 nM
- TGI (M14 melanoma): 3.08 µM
- GI50 (ACHN renal): 2520 nM
- TGI (ACHN renal): 8.01 µM
- GI50 (BT-549 breast): 1020 nM
- TGI (BT-549 breast): 2670 nM
- GI50 (HS 578T breast): 445 nM
- TGI (HS 578T breast): 2330 nM
- GI50 (SK-MEL-2 melanoma): 2970 nM
- TGI (SK-MEL-2 melanoma): 4.54 µM
- GI50 (DU-145 prostate): 1710 nM
- TGI (DU-145 prostate): 5.2 µM
- GI50 (COLO 205 colon): 1860 nM
- TGI (COLO 205 colon): 4.14 µM
- GI50 (RPMI-8226 leukemia): 1880 nM
- TGI (RPMI-8226 leukemia): 3.35 µM
- GI50 (SF-539 CNS): 1190 nM
- TGI (SF-539 CNS): 3000 nM
- GI50 (SK-MEL-5 melanoma): 1400 nM
- TGI (SK-MEL-5 melanoma): 2710 nM
- GI50 (UACC-62 melanoma): 1370 nM
- TGI (UACC-62 melanoma): 2770 nM
- GI50 ([…]-0 renal): 1750 nM
- TGI (786-0 renal): 4.75 µM
- GI50 (HCT-116 colon): 1530 nM
- TGI (HCT-116 colon): 3.08 µM
- GI50 (K-562 leukemia): 1500 nM
- TGI (K-562 leukemia): 3.32 µM
- GI50 (NCI/ADR-RES ovarian): 1690 nM
- TGI (NCI/ADR-RES ovarian): 3.28 µM
- GI50 (NCI-H460 NSCLC): 2280 nM
- TGI (NCI-H460 NSCLC): 7.89 µM
- GI50 (A549 NSCLC): 2990 nM
- TGI (A549 NSCLC): > 100 µM
- GI50 (MDA-MB-231 breast): 1560 nM
- TGI (MDA-MB-231 breast): 3.7 µM
- GI50 (NCI-H522 lung): 521 nM
- TGI (NCI-H522 lung): 1840 nM
- GI50 (MDA-MB-435 melanoma): 1450 nM
- TGI (MDA-MB-435 melanoma): 3.33 µM
- GI50 (MCF7 breast): 1490 nM
- TGI (MCF7 breast): 4.06 µM
- GI50 (NCI-H226 lung): 1260 nM
- TGI (NCI-H226 lung): 2660 nM
- GI50 (SK-OV-3 ovarian): 1430 nM
- TGI (SK-OV-3 ovarian): 3.94 µM
- GI50 (U251 glioblastoma): 888 nM
- TGI (U251 glioblastoma): 2460 nM
- GI50 (SF-268 CNS): 1150 nM
- TGI (SF-268 CNS): 2870 nM
- GI50 (HL-60(TB) leukemia): 1540 nM
- TGI (HL-60(TB) leukemia): 2930 nM
- GI50 (IGROV1 ovarian): 1950 nM
- TGI (IGROV1 ovarian): 4.64 µM
- GI50 (SK-MEL-28 melanoma): 1470 nM
- TGI (SK-MEL-28 melanoma): 3.16 µM
- GI50 (OVCAR-5 ovarian): 1770 nM
- TGI (OVCAR-5 ovarian): 8.81 µM
- GI50 (RXF 393 renal): 1560 nM
- TGI (RXF 393 renal): 3.98 µM
- GI50 (PC-3 prostate): 1600 nM
- TGI (PC-3 prostate): 3.69 µM
- GI50 (LOX IMVI melanoma): 1870 nM
- TGI (LOX IMVI melanoma): 3.8 µM
- GI50 (EKVX NSCLC): 1480 nM
- TGI (EKVX NSCLC): 3.93 µM
- GI50 (SW-620 colon): 2030 nM
- TGI (SW-620 colon): 4.79 µM
- GI50 (OVCAR-4 ovarian): 1540 nM
- TGI (OVCAR-4 ovarian): 6.77 µM
- GI50 (UO-31 renal): 2150 nM
- TGI (UO-31 renal): 6.11 µM
- GI50 (NCI-H322M lung): 1080 nM
- TGI (NCI-H322M lung): 3.29 µM
- GI50 (HT29 colon): 2950 nM
- TGI (HT29 colon): 10.1 µM
- GI50 (NCI-H23 lung): 1420 nM
- TGI (NCI-H23 lung): 2970 nM
